Results: patent US12178791B2, “Haloallylamine sulfone derivative inhibitors of lysyl oxidases and uses thereof” (Syntara Limited, priority 2018, dated 2024)
Entries after “also recorded” stand apart in the source; their conditions may differ. Where a name gives a salt, the structure may show the parent alone.

Legend:
rhSSAO = rhSSAO (Homo sapiens (Human), UniProt Q16853); test: Measurement of substrate turnover by SSAO; format: biochemical; conditions: compound 2.5 mM, relative to background (dimethyl sulfoxide only)
Procedure: In brief, the assay employed determines the substrate propensity of a compound relative to background (dimethyl sulfoxide only). Compound oxidation by rhSSAO was measured by fluorometric assay (Holt and Palcic, 2006). Briefly, rhSSAO was incubated for 2 hours at 37° C. in HEPES buffer before the addition of an equal volume of Amplex Red ([…]), horseradish peroxidase (4 U/ml), and Compound (2.5 mM) in the same buffer. The kinetics of the formation of resorufin was measured immediately using Optima reader (BMG Labtech GmbH, Ortenburg, Germany), at 37° C.

[1] = test system: deep dermal burn injuries; test: Porcine burn injury model; format: in vivo, pigs; conditions: 3% topical daily for 4 weeks
Procedure: Pigs received 4×25 cm^2 deep dermal burn injuries, 2 on each flank. From the time of re-epithelialisation, on each pig, 2 wounds were treated with 3% Compound 1 cream daily for 4 weeks and 2 received control cream. Pigs were euthanized and tissue was processed for analysis.

[2] = test system: scar tissue after excision of dermal tissue; test: Rodent injury model; format: in vivo, mice; conditions: 1% solution topical
Procedure: Mice received injury by excision of dermal tissue. In the treatment group, 1% Compound 1 solution was applied topically from 24 hours post injury to 1 week post injury. Wounds were then left to heal for an additional week. Mice were euthanized at 14 days post injury and the tissue was analyzed for collagen I content, and changes in gross morphology and histology.

[3] = test system: CCl4 hepatic fibrosis / 4t1 metastasis; test: CCl4 induced liver fibrosis with orthotopic 4t1 breast cancer cells (fibrosis associated metastasis); format: in vivo, BALB/c mice; conditions: 20 mg/kg daily ip
Procedure: Hepatic fibrosis was induced by treated of BALB/c mice twice weekly with 1 mg/kg carbon tetrachloride (CCl4) for a period of 8 wks.

[4] = test system: bleomycin-induced lung fibrosis; test: Bleomycin-induced lung fibrosis model; format: in vivo, C57Bl/6 mice; conditions: daily oral gavage for 21 days
Procedure: C57Bl/6 mice were given 1.5 U/kg amounts of generic clinical Bleomycin (Blenoxane) via oropharyngeal administration. Compound 33 was dosed daily via oral gavage for 21 days, after which time, tissues were harvested and analyzed.

kidney fibrosis (UUO) = test: Unilateral ureteral obstruction (UUO) model of acute kidney fibrosis; format: in vivo, mice; conditions: 10 mg/kg daily orally, 14 days
Procedure: A 14-day unilateral ureteric obstruction (UUO) model of acute kidney fibrosis in mice was conducted to mimic the different stages of obstructive nephropathy leading to tubulointerstitial fibrosis in an accelerated manner UUO surgery was performed by ligation of the left ureter and induced decrease of left kidney thickness and atrophy (indicated by a significant decrease in kidney weight and ratio of kidney/body weight when compared to the contralateral side) as well as a significant increase in kidney fibrosis. Treatment groups received Compound 33 (10 mg/kg daily) orally for the duration of the study. Compound 33 increased kidney weight and thickness and reduced the area of fibrosis as measured by Picrosirius Red (FIG. 9). Captopril (˜32 mg/kg/day in drinking water) was used as a positive control.

lysyl oxidase = test: Target engagement: lysyl oxidase activity in the aorta; format: in vivo, Wistar rats
Procedure: Sample preparation: All preparation activities were performed on ice, with buffers in presence of proteases inhibitors (PMSF: Sigma P7626, 0.25 mM, Aprotinin: Sigma A6279, 1 μL per mL) (Methods in Cell Biology, 2018; 143: 147-156). The surrounding adventitia and muscle/fat from the frozen aorta sample was removed in ice-cold Wash Buffer (0.15 M NaCl, 50 mM sodium borate, pH=8.0, with protease inhibitors) using fine forceps, under a dissecting microscope. The aorta was blotted on a Kimwipe and weighed in a 1.5 mL Eppendorf tube and left on ice. After snap-freezing the aorta in liquid nitrogen, a mortar and the pestle (stored at −80° C.) was used to pulverize the tissue. The pulverized tissue was transferred to a designated tube containing metal beads, 10× v/w Wash Buffer+protease inhibitors. The tissues was homogenized for 5 seconds using a bead-mill. The homogenate was centrifuged at 10,000×g for 10 minutes at 4° C. and the supernatant was discarded. Homogenization and washing steps were repeated twice more. […]
Assay: Pargyline (final concentration 0.5 mM) and mofegiline (final concentration 1 μM) were added to the samples. […] Plate fluorescence was then measured every 2.5 min (Ex: 544 nm/Em: 590 nm/gain: 1260; 37° C.) on Fluostar™.
[…] The responses were normalised to the activity measured in animals treated with saline (control).

[5] = vs control cream, hydrochloride

rhSSAO, sequence (Q16853 whole entry): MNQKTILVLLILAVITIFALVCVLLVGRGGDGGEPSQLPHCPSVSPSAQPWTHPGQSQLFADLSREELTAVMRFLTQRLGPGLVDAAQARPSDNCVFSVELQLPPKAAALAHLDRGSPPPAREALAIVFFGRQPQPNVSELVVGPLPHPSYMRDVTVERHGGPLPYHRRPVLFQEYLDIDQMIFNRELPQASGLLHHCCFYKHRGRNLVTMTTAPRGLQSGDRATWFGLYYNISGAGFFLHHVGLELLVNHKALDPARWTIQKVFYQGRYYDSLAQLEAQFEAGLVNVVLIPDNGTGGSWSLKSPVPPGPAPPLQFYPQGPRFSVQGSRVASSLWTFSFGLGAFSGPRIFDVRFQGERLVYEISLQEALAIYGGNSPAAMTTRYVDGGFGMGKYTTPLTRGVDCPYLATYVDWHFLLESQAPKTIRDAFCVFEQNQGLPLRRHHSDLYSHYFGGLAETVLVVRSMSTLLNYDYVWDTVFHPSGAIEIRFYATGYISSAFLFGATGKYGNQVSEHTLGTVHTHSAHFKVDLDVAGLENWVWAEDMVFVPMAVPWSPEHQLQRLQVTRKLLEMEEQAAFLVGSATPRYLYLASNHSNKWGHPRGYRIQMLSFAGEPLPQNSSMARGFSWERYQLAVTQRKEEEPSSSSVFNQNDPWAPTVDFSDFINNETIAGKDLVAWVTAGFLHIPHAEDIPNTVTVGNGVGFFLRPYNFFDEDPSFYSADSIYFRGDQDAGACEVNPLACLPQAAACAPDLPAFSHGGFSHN

## NC/C=C(\F)CS(=O)(=O)c1ccccc1 [Compound 1, (Z)-3-fluoro-4-(phenylsulfonyl)but-2-en-1-amine hydrochloride]
rhSSAO
  Substrate activity for rhSSAO: no significant turnover
[1]
  Gross morphology and histology: thick collagen fibers: reduced density
[1]; [5]
  LOX activity in treated tissue: reduction; also recorded: significantly reduced
  total collagen I protein: reduction; also recorded: significantly reduced
[2]; 24 hours to 1 week post injury, analysis 14 days post injury, vs control, hydrochloride
  Collagen I quantity (LCMS, normalized for protein content): reduction in collagen; also recorded: reduced
[2]; 14 days post injury
  Histology: collagen bundles in scar tissue: decreased density of bundles

## NC/C=C(\F)CS(=O)(=O)c1cccc2cccnc12 [Compound 33, (Z)-3-fluoro-4-(quinolin-8-ylsulfonyl)but-2-en-1-amine dihydrochloride]
[3]
  collagen cross-links in the liver: significantly reduced
  primary tumor growth or collagen cross-links (primary tumor): No differences
[3]; 8 wks CCl4
  liver fibrosis: significantly reduced
[3]; dihydrochloride
  metastatic load in the liver: reduce; also recorded: significantly reduced
[4]
  lung weight: significantly reduced
  reduction of immature (DHLNL) cross-links per lung: 37%
  reduction of mature (PYD) cross-links per lung: 45%
[4]; dihydrochloride
  Ashcroft score: reduce; also recorded: significantly reduced
Kidney fibrosis (UUO)
  area of fibrosis as measured by Picrosirius Red: reduced
  kidney weight and thickness: increased
Lysyl oxidase; single oral dose
  half-life of recovery of lysyl oxidase activity (aorta): 24 h
Lysyl oxidase; single oral dose at 5, 10 or 30 mg/kg, vs untreated control
  lysyl oxidase enzymatic activity in rat aorta: dose-dependent block
